# Values joined by “and” are separate entries in the source; they are usually repeats but may differ in a detail not shown here. Equal values may be shown once. Read-outs that look alike come from different tables or passages of the source. Marks after values point to notes of the source that are not given here.
# Experiments:
# MRSA BAA-1707 [1] = experiment: Metal(II)-cation co-treatment MIC assay; type: cell-based; details: Staphylococcus aureus
# MRSA, MRSE, and VRE = experiment: MIC assays against MRSA, MRSE, and VRE (all strains); details: in words
# MRSE 35984 biofilms = experiment: Calgary Biofilm Device (CBD) assay, MBC/MBEC; details: CBD; for MRSE 35984 MBEC: biofilm eradication; for MRSE 35984 MBC: planktonic killing
# MRSA BAA-1707 biofilms = experiment: Calgary Biofilm Device (CBD) assay, MBC/MBEC; details: CBD; for MRSA BAA-1707 MBEC: biofilm eradication; for MRSA BAA-1707 MBC: planktonic killing
# VRE 700221 biofilms = experiment: Calgary Biofilm Device (CBD) assay, MBC/MBEC; details: CBD; for VRE 700221 MBC: planktonic killing
# MRSE 35984 = experiment: MIC, broth microdilution (CLSI); details: 16 to 18 hours at 37° C.
# MRSA BAA-44 biofilms = experiment: Calgary Biofilm Device (CBD) assay, MBC/MBEC; details: for MRSA BAA-44 MBEC: biofilm eradication; for MRSA BAA-44 MBC: planktonic killing
# [2] = test system: M. tuberculosis H37Ra (ATCC 25177); experiment: MIC assay for Mycobacterium tuberculosis; type: cell-based; details: read-out: MtB H37Ra MIC
# Experimental: (§1) The culture was then diluted with fresh medium until an OD600 of 0.01 was reached. […] The final DMSO concentration was maintained at 0.5%. […] Three rows were reserved for each compound. […] OD600 absorbance was recorded using SPECTRAMAX M5 (Molecular Devices). Data obtained from three independent experiments were analyzed using Excel.
# as §1, with “SpectraMax” for “SPECTRAMAX”
# MRSA-2 biofilms = experiment: Calgary Biofilm Device (CBD) assay, MBC/MBEC; details: CBD; for MRSA-2 MBEC: biofilm eradication; for MRSA-2 MBC: planktonic killing
# VRE 700221 = experiment: MIC, broth microdilution (CLSI); details: 16 to 18 hours at 37° C.
# MRSA BAA-1707 [3] = experiment: MIC, broth microdilution (CLSI); details: 16 to 18 hours at 37° C.; 0.10 = lowest concentration tested
# MRSA-2 = experiment: MIC, broth microdilution (CLSI); details: 16 to 18 hours at 37° C.
Structure (SMILES),"activity in MIC assays (MRSA, MRSE, and VRE)",MRSE 35984 MIC (MRSE 35984),MIC [2] [µM],MRSA-2 MBEC (MRSA-2 biofilms),MRSA-2 MBC (MRSA-2 biofilms),VRE 700221 MIC (VRE 700221),MRSA BAA-1707 MIC (MRSA BAA-1707 [3]),Hemolysis at 200 μM (human red blood cells) [%],MRSA-2 MIC (MRSA-2),also measured
"Oc1cccc2nc3ccccc3nc12 [1-OHP, 1-hydroxyphenazine]",,,,,,,,,,MIC (MRSA BAA-1707 [1]): 250 µM; MIC (MRSA BAA-1707 [1]; read-out: MIC w/ Cu2+): 75 µM; MIC (MRSA BAA-1707 [1]; read-out: MIC w/ Fe2+): 250 µM; MIC (MRSA BAA-1707 [1]; read-out: MIC w/ Mg2+): 250 µM; MIC (MRSA BAA-1707 [1]; read-out: MIC w/ Zn2+): > 500 µM
"Oc1cccc2cccnc12 [8-OHQ, 8-hydroxyquinoline]",,,,,,,,,,MIC (MRSA BAA-1707 [1]; read-out: MIC w/ Mg2+): 6.25 µM
OC[C@H]1O[C@@H](Oc2c(Br)cc(Br)c3nc4ccccc4nc23)[C@H](O)[C@@H](O)[C@@H]1O [79A],no activity in MIC assays,,,,,,,,,
COCCOCCOCCOC(=O)OCOc1c(Br)cc(Br)c2nc3ccccc3nc12 [80A],no activity in MIC assays,,,,,,,,,
O=C(OCCOCCOCCOCCO)OCOc1c(Br)cc(Br)c2nc3ccccc3nc12 [82A],no activity in MIC assays,,,,,,,,,
O=C(OCCSSCCOC(=O)c1ccccc1)OCOc1c(Br)cc(Br)c2nc3ccccc3nc12 [85A],no antibacterial activity against any pathogen tested,,,,,,,,,
Oc1c(Br)cc(Br)c2nc3ccccc3nc12 [Compound 1A],,1.17^a μM and 1.17 μM,25,100 µM,50 µM,6.25 µM,,,,MRSE 35984 MBEC (MRSE 35984 biofilms): 100 µM; MRSE 35984 MBC (MRSE 35984 biofilms): 50 µM; MRSA BAA-1707 MBEC (MRSA BAA-1707 biofilms): 150 µM; MRSA BAA-1707 MBC (MRSA BAA-1707 biofilms): 37.5 µM and 18.8 µM; VRE 700221 MBC (VRE 700221 biofilms): 23.5 µM; MRSA BAA-44 MBEC (MRSA BAA-44 biofilms): 150 µM; MRSA BAA-44 MBC (MRSA BAA-44 biofilms): 375 µM; IC50 (HeLa cells): > 100 µM
Oc1c(Br)cc(Br)c2nc3cc(Cl)ccc3nc12 [Compound 27],,,,,,,0.1 µM,,,MRSE 35984 MBEC (MRSE 35984 biofilms): 2.35 µM; MIC ([2]; seven days at 37° C.): 3.13 µM
Cc1ccc2nc3c(O)c(Br)cc(Br)c3nc2c1 [Compound 52A],,0.3^a μM,6.25,,,2.35^a μM,,≤1,,VRE 700221 MBEC (VRE 700221 biofilms; biofilm eradication): 3.13 µM; VRE 700221 MBC (VRE 700221 biofilms): 12.5 µM
CCc1ccc2nc3c(O)c(Br)cc(Br)c3nc2c1 [Compound 53A],,0.1^b μM,6.25,150 µM,75 µM,2.35^a μM,0.1^b μM,3.0,0.59^a μM,MRSE 35984 MBEC (MRSE 35984 biofilms): 75 µM; MRSE 35984 MBC (MRSE 35984 biofilms): 50 µM; MRSA BAA-1707 MBEC (MRSA BAA-1707 biofilms): 150 µM; MRSA BAA-1707 MBC (MRSA BAA-1707 biofilms): 75 µM; MRSA BAA-44 MBEC (MRSA BAA-44 biofilms): 75^a/75^a μM; MRSA BAA-44 MBC (MRSA BAA-44 biofilms): 75^a/75^a μM
CC(C)(C)c1ccc2nc3c(O)c(Br)cc(Br)c3nc2c1 [Compound 55A],,0.1^b μM,,3.13/3.13 μM,3.13/3.13 μM,0.1^b μM,0.1^b μM,≤1,0.1^b μM,
Oc1c(Br)cc(Br)c2nc3cc(Cl)ccc3nc12 [Compound 61A],,0.1^b μM,,25 µM,6.25 µM,,,≤1,0.1^b μM,
Oc1c(Br)cc(Br)c2nc3cc(Oc4ccccc4)ccc3nc12 [Compound 63A],,0.1^b μM,6.25,,,,0.075^a μM,≤1,0.39 µM,MRSA BAA-1707 MBC (MRSA BAA-1707 biofilms): […]; VRE 700221 MBC (VRE 700221 biofilms): 2.35 µM
